Assay results published in the supplement of paper PMC11061612.

Legend:
Experiment in all cases: combination Emax (second highest fraction inhibited in the dose matrix, 72 h); higher = more inhibition; extreme values may be limits of the assay
[1] = test system: Calu-3 (Lung Adenocarcinoma)
Procedure, shortened: (§1)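 Bliss excess equals the observed combination effect minus the expected value EA + EB − EA·EB, where EA and EB are the effects of each agent alone. Combination Emax is the second-highest inhibition within the matrix. Inhibition was scaled from CellTiter-Glo 2.0 luminescence, with 0 set by vehicle wells and 1 by blank wells, after 72 hours of two-drug dosing of cells plated in 1536-well plates.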

[2] = test system: ME-1 (Acute Myeloid Leukemia)
Procedure, shortened: as §1

[3] = test system: T98G (Glioblastoma)
Procedure, shortened: as §1

[4] = test system: CCRF-CEM (T-Lymphoblastic Leukemia)
Procedure, shortened: as §1

[5] = test system: KP-1N (Pancreatic Carcinoma)
Procedure, shortened: as §1

[6] = test system: RC-K8 (B-Cell Non-Hodgkin's Lymphoma)
Procedure, shortened: as §1

[7] = test system: TE-9 (Esophageal Squamous Cell Carcinoma)
Procedure, shortened: as §1

[8] = test system: Daoy (Other Solid Carcinomas)
Procedure, shortened: as §1

[9] = test system: TCCSUP (Bladder Carcinoma)
Procedure, shortened: as §1

[10] = test system: LU-135 (Small Cell Lung Carcinoma)
Procedure, shortened: as §1

[11] = test system: TE-15 (Esophageal Squamous Cell Carcinoma)
Procedure, shortened: as §1

[12] = test system: NB10 (Neuroblastoma)
Procedure, shortened: as §1

[13] = test system: ES4 (Ewing's Sarcoma)
Procedure, shortened: as §1

[14] = test system: HCC1806 (Breast Carcinoma)
Procedure, shortened: as §1

[15] = test system: 42-MG-BA (Glioblastoma)
Procedure, shortened: as §1

[16] = test system: NCI-H2085 (Non-Small Cell Lung Carcinoma)
Procedure, shortened: as §1

[17] = test system: Ramos-2G6-4C10 (Burkitt's Lymphoma)
Procedure, shortened: as §1

[18] = test system: HCC-78 (Lung Adenocarcinoma)
Procedure, shortened: as §1

[19] = test system: COLO-205 (Colorectal Carcinoma)
Procedure, shortened: as §1

[20] = test system: DoTc2-4510 (Cervical Carcinoma)
Procedure, shortened: as §1

Compound | combination Emax [1] | combination Emax [2] | combination Emax [3] | combination Emax [4] | combination Emax [5] | combination Emax [6] | combination Emax [7] | combination Emax [8] | combination Emax [9] | combination Emax [10] | combination Emax [11] | combination Emax [12] | combination Emax [13] | combination Emax [14] | combination Emax [15] | combination Emax [16] | combination Emax [17] | combination Emax [18] | combination Emax [19] | combination Emax [20]
COc1nnc2ccc(N3CCC(c4ccc(OCCN5CCN(C)C(=O)[C@H]5C)cc4)CC3)nn12 [AZD5153] + CC1(C)CCC(CN2CCN(c3ccc(C(=O)NS(=O)(=O)c4ccc(NCC5CCOCC5)c([N+](=O)[O-])c4)c(Oc4cnc5[nH]ccc5c4)c3)CC2)=C(c2ccc(Cl)cc2)C1 [Venetoclax] (first compound max 1 µM, 7x7, partner max 1 µM) | 0.621 | 1 | 0.491 | 0.562 | 0.481 | 0.738 | 0.13 | 0.487 | 0.252 | 0.98 | 0.503 | 0.527 | 0.616 | 0.645 | 0.56 | 0.404 | 0.589 | 0.411 | 0.566 | 0.385
COc1nnc2ccc(N3CCC(c4ccc(OCCN5CCN(C)C(=O)[C@H]5C)cc4)CC3)nn12 [AZD5153] + CCN(CCO)CCCOc1ccc2c(Nc3cc(CC(=O)Nc4cccc(F)c4)[nH]n3)ncnc2c1 [AZD2811] (first compound max 1 µM, 7x7, partner max 1 µM) | 0.635 | 0.434 | 0.491 | 0.993 | 0.542 | 0.728 | 0.218 | 0.606 | 0.366 | 1 | 0.486 | 0.571 | 0.685 | 0.676 | 0.783 | 0.484 | 0.666 | 0.489 | 0.869 | 0.381
COc1nnc2ccc(N3CCC(c4ccc(OCCN5CCN(C)C(=O)[C@H]5C)cc4)CC3)nn12 [AZD5153] + C[C@@H]1COCCN1C2=NC(=NC(=C2)C3(CC3)[S@](=N)(=O)C)C4=C5C=CNC5=NC=C4 [AZD6738] (first compound max 1 µM, 7x7, partner max 10 µM) | 0.719 | 0.651 | 0.798 | 0.993 | 0.69 | 0.896 | 0.271 | 0.835 | 0.566 | 1 | 0.889 | 0.903 | 0.942 | 0.919 | 0.793 | 0.653 | 0.913 | 0.517 | 0.83 | 0.511
COc1nnc2ccc(N3CCC(c4ccc(OCCN5CCN(C)C(=O)[C@H]5C)cc4)CC3)nn12 [AZD5153] + Cc1c2c(nn1C)CSCc1cc(n(C)n1)CSc1cc(c3ccccc3c1)OCCCc1c(C(=O)O)n(C)c3c-2c(Cl)ccc13 [AZD5991] (first compound max 1 µM, 7x7, partner max 1 µM) | 0.677 | 0.793 | 0.459 | 0.858 | 0.582 | 0.832 | 0.57 | 0.801 | 0.32 | 0.994 | 0.627 | 0.651 | 0.63 | 0.755 | 0.883 | 0.64 | 1 | 0.522 | 0.79 | 0.362
COc1nnc2ccc(N3CCC(c4ccc(OCCN5CCN(C)C(=O)[C@H]5C)cc4)CC3)nn12 [AZD5153] + Cn1cnc2c(F)c(Nc3ccc(Br)cc3Cl)c(C(=O)NOCCO)cc21 [Selumetinib] (first compound max 1 µM, 7x7, partner max 10 µM) | 0.887 | 0.583 | 0.476 | 0.638 | 0.563 | 0.781 | 0.35 | 0.598 | 0.337 | 0.948 | 0.743 | 0.785 | 0.658 | 0.687 | 0.705 | 0.563 | 0.56 | 0.451 | 1 | 0.427
Cc1c2c(nn1C)CSCc1cc(n(C)n1)CSc1cc(c3ccccc3c1)OCCCc1c(C(=O)O)n(C)c3c-2c(Cl)ccc13 [AZD5991] + C=CCn1c(=O)c2cnc(Nc3ccc(N4CCN(C)CC4)cc3)nc2n1-c1cccc(C(C)(C)O)n1 [AZD1775] (first compound max 1 µM, partner max 1 µM) | 0.197 | 0.793 | 0.674 | 1 | 0.458 | 0.617 | 0.366 | 0.979 | 0.596 | 0.581 | 0.548 | 0.6 | 0.502 | 0.972 | 0.986 | 0.626 | 1 | 0.331 | 0.684 | 0.523
Cc1c2c(nn1C)CSCc1cc(n(C)n1)CSc1cc(c3ccccc3c1)OCCCc1c(C(=O)O)n(C)c3c-2c(Cl)ccc13 [AZD5991] + CC1(C)CCC(CN2CCN(c3ccc(C(=O)NS(=O)(=O)c4ccc(NCC5CCOCC5)c([N+](=O)[O-])c4)c(Oc4cnc5[nH]ccc5c4)c3)CC2)=C(c2ccc(Cl)cc2)C1 [Venetoclax] (first compound max 1 µM, 7x7, partner max 1 µM) | 0.135 | 1 | 0.283 | 0.787 | 0.119 | 0.185 | 0.508 | 0.425 | 0.157 | 0.478 | 0.173 | 0.481 | 0.147 | 0.596 | 0.963 | 0.783 | 0.985 | 0.158 | 0.135 | 0.287
Cc1c2c(nn1C)CSCc1cc(n(C)n1)CSc1cc(c3ccccc3c1)OCCCc1c(C(=O)O)n(C)c3c-2c(Cl)ccc13 [AZD5991] + CCN(CCO)CCCOc1ccc2c(Nc3cc(CC(=O)Nc4cccc(F)c4)[nH]n3)ncnc2c1 [AZD2811] (first compound max 1 µM, 7x7, partner max 1 µM) | 0.17 | 0.733 | 0.585 | 0.999 | 0.234 | 0.379 | 0.251 | 0.505 | 0.321 | 0.906 | 0.826 | 0.405 | 0.219 | 0.776 | 1 | 0.863 | 1 | 0.31 | 0.948 | 0.287
Cc1c2c(nn1C)CSCc1cc(n(C)n1)CSc1cc(c3ccccc3c1)OCCCc1c(C(=O)O)n(C)c3c-2c(Cl)ccc13 [AZD5991] + CN(C)CCCOc1ccc(-c2ccc3ncc4c(c3c2)n(C2CCOCC2)c(=O)n4C)cn1 [AZD0156] (first compound max 1 µM, 7x7, partner max 1 µM) | 0.15 | 0.803 | 0.283 | 0.48 | 0.229 | 0.314 | 0.188 | 0.223 | 0.162 | 0.286 | 0.188 | 0.273 | 0.238 | 0.833 | 0.986 | 0.219 | 0.988 | 0.211 | 0.725 | 0.326
Cc1c2c(nn1C)CSCc1cc(n(C)n1)CSc1cc(c3ccccc3c1)OCCCc1c(C(=O)O)n(C)c3c-2c(Cl)ccc13 [AZD5991] + C[C@@H]1COCCN1C2=NC(=NC(=C2)C3(CC3)[S@](=N)(=O)C)C4=C5C=CNC5=NC=C4 [AZD6738] (first compound max 1 µM, 7x7, partner max 10 µM) | 0.275 | 0.798 | 0.875 | 1 | 0.279 | 0.781 | 0.366 | 0.945 | 0.648 | 0.736 | 0.736 | 0.86 | 0.885 | 0.961 | 1 | 0.52 | 1 | 0.544 | 0.511 | 0.677
Cc1c2c(nn1C)CSCc1cc(n(C)n1)CSc1cc(c3ccccc3c1)OCCCc1c(C(=O)O)n(C)c3c-2c(Cl)ccc13 [AZD5991] + C[C@@H](Nc1cc(F)cc(F)c1)c1cc(C(=O)N(C)C)cc2c(=O)cc(N3CCOCC3)oc12 [AZD8186] (first compound max 1 µM, 7x7, partner max 3 µM) | 0.175 | 0.787 | 0.501 | 0.27 | 0.274 | 0.2 | 0.135 | 0.391 | 0.227 | 0.417 | 0.223 | 0.179 | 0.305 | 0.6 | 0.963 | 0.691 | 0.959 | 0.413 | 0.14 | 0.384
Cc1c2c(nn1C)CSCc1cc(n(C)n1)CSc1cc(c3ccccc3c1)OCCCc1c(C(=O)O)n(C)c3c-2c(Cl)ccc13 [AZD5991] + Cc1cc2ncnn2cc1Nc1ncc2c(n1)n(C1CCOCC1)c(=O)n2C [AZD7648] (first compound max 1 µM, 7x7, partner max 10 µM) | 0.201 | 0.755 | 0.361 | 0.52 | 0.279 | 0.425 | 0.214 | 0.244 | 0.25 | 0.279 | 0.235 | 0.258 | 0.229 | 0.515 | 0.988 | 0.244 | 1 | 0.339 | 0.298 | 0.244
